Assay results taken from US8093273B2, “Flavanoids and isoflavanoids for the prevention and treatment of cardiovascular diseases” (Resverlogix Corp., priority 2004, dated 2012).
≈ marks a conversion by molar mass, not a printed value.

Columns and labels:
human ApoA-I promoter [1] = assay: ApoA-I promoter induction in Caco-2 intestinal cells (pAI.474-Luc luciferase reporter); assay type: cell-based; settings: Caco-2 cells, 15 μM, 48 hours incubation, luciferase activity vs control samples
Description: To examine the effects of compounds of the invention to increase ApoA-I expression, Caco-2 cells, an intestinal cell line derived from human epithelial intestinal cells, were grown under conditions recommended by the ATCC and summarized in United States Patent Application Publication No. 20040033480 (“Wong”), incorporated herein by reference.
Briefly, the promoter region of the gene encoding human ApoA-I was isolated and ligated upstream of the firefly luciferase gene to construct the reporter plasmid pAI.474-Luc. This reporter plasmid and pRSV-β-galactosidase (as a control for transfection efficiency) were co-transfected to Caco-2 cells. The Caco-2 cells were then incubated in a MEM selection media containing 20% fetal calf serum supplemented with G418 (final concentration: 0.5 mg/mL, Gibco) to give established strains that stably express from the reporter gene. The strains were seeded in 6-well culture plates and incubated for 48 hours at 37° C. under 5% carbon dioxide. Cells were starved for 24 hrs in MEM selection media containing 0.5% FBS. Then, a solution of a compound of the invention in DMSO or other appropriate solvent was added to the wells at a final concentration of 0 to 100 μM in MEM selection media containing 0.5% FBS.
After further incubation for 48 hours, the cells were harvested and lysed using Reporter Lysis Buffer (PROMEGA E3971), and 50 μL of luciferase assay reagent (PROMEGA E4550 Luciferase Reporter 1000 assay system) was added to measure luciferase activity with a luminometer (Fluoroskan Ascent FL from Thermo electron Corporation). Luciferase activity was normalized to lysate protein concentrations, measured using Bradford Reagent (BioRad Protein Assay reagent Cat #500-0006). The luciferase activity of cells treated with various concentrations of test compounds was compared to that of solvent control sample (i.e., solvent without any compound of the present invention added) and untreated control sample.

[2] = Solubility analysis in PBS (HPLC-UV); assay type: physicochemical; settings: aqueous buffer, thermodynamic from solid; 1 mg in 1 mL PBS, sonicated 1 hour, 25° C. for 3 hrs
Description: Samples were then centrifuged at 14,000 rpm for 6 minutes at room temperature. The supernatant was diluted with acetonitrile and was removed for analysis. Analysis was performed using HPLC-UV with 7-point standard curve to determine the concentration. The average concentration calculated is regarded as the solubility (μM).

Caco-2 permeability = assay type: in vitro ADME, human; settings: human, Caco-2
Excerpt: The Caco-2 cell drug transport model is widely used for screening compounds in drug discovery to assess intestinal transport and predict absorption rates.

human ApoA-I promoter [3] = assay: ApoA-I promoter induction in HepG2 liver cells (pAI.474-Luc luciferase reporter); assay type: cell-based; settings: average values at 15 μM, 48 hours incubation
Description: This study determined whether compounds of the invention have an effect on ApoA-I promoter activity expression in HepG2 cells, a liver cell line. Cells were grown under conditions recommended by the ATCC and summarized by Wong.
The promoter region of the gene encoding human ApoA-I was isolated and ligated upstream the structure gene of firefly luciferase to construct a reporter plasmid (pAI.474-Luc). The reporter plasmid, along with pRSV-β-galactosidase (as a control for transfection efficiency), were co-transfected into HepG2 cells. The cells were then incubated in an MEM selection media containing 20% fetal calf serum supplemented with G418 (final concentration: 0.5 mg/mL, Gibco) to give established strains that stably express from the reporter gene. The strains were seeded to a 6-well culture plates and incubated for 48 hours at 37° C. under 5% carbon dioxide. Cells were starved for 24 hrs in MEM selection media containing 0.5% FBS. Then, a solution of the compounds of the invention in DMSO (or other appropriate solvent) was added to the wells at a final concentration of 0 to 100 μM in MEM selection media containing 0.5% FBS.
After further incubation for 48 hours, the cells were harvested and lysed using Reporter Lysis Buffer (PROMEGA E3971), and 50 μL of luciferase assay reagent (PROMEGA E4550 Luciferase Reporter 1000 assay system) were added to measure luciferase activity with a luminometer (Fluoroskan Ascent FL from Thermo electron Corporation). Luciferase activity was normalized to lysate protein concentrations, measured using Bradford Reagent (Biorad Protein Assay reagent Cat #500-0006).

hApoA-I transgenic mice = assay: hApoA-I transgenic mice, oral gavage for 14 days; assay type: in vivo; settings: Experiment A
Excerpt: To test whether the efficacy of compounds of the invention observed in vitro extended to an in vivo model, transgenic mice carrying multiple copies of the human ApoA-I gene (C57BI/6-tgn(apoa1)1 rub, Jackson Laboratory, Bar Harbor, Me.) were exposed to representative compounds of the invention. The exogenous human ApoA-I gene in these mice enables them to express the human ApoA-I protein under the control of this promoter.
Seven to eight week old male mice, transgenic for human ApoA-I were housed five per cage (10″×20″×8″ with aspen chip bedding) with pelleted Rodent chow [Purina 5001] and water available at all times. After an acclimation period of 1 week, animals were individually identified by numbering on tail and weighed. Mice were pre bled via the retro-orbital plexus, and 150 μl of blood was collected in 1.5 ml Eppendorf tube containing 1 μl of heparin and chilled on ice. Plasma was collected after centrifuging the whole blood at 14000 rpm [TOMY high speed micro-refrigerated centrifuge NTX-150] for 10 minutes at 4° C. and frozen at −80° C. Plasma was analyzed for: human ApoA-I by a human ApoA-I enzyme-linked Immunoassay [Direct Sandwich ELISA Calbiochem Cat#178422, Calbiochem Cat#178452, lot #B9076, Calbiochem Cat #178470 conjugated to Horse Radish Peroxidase (Cedarlane Cat#80220)]; total cholesterol [Ponte scientific reagents: # C7509-STD, #L7580-18, # C7510]; and triglyceride [Pointe Scientific Reagents: # 7532-STD, # L7580-18, #7532]. All samples were measured in triplicates and expressed as mg/dl. Mice were grouped based on the above plasma parameters and having an average body weight of 25 gm.
Two days following pre-bleed, mice were dosed by oral gavage daily for 14 days using a 20 gauge, 11/2″ curved disposable feeding needle [Popper & Sons]; when BID, mice were gavaged morning and afternoon (8 am and 5 pm); when SID mice were gavaged in morning (8 am). Compounds were prepared each day in vehicle. Test article(s), a positive control fenofibrate, and vehicle were dosed at volume of 5 mL/kg of body weight as a suspension (0.1 mL/20 g mouse). Fenofibrate was obtained commercially [SIGMA #F 6020]. Mice weights were recorded on day 1, 4, 7, 10, 12, and 15. On day 15, mice were weighed and fasted for 4 hours, sacrificed by inhalation of CO2 and blood was obtained via cardiac puncture (0.7-1.0 ml). Plasma was collected and frozen at −80° C. Samples were assayed for ApoA-I, total cholesterol, triglyceride and HDL-C by HPLC [Polaris 200 with an auto sampler Prostar 410 from Varian on a Superose 6 10/30 column from Amersham]. Samples were sent for NMR analysis [LipoScience] to identify particle size and subclass for lipoproteins. During necropsy, liver, brown fat, and the whole of small and large intestines were collected, cleaned with cold PBS and frozen at −80° C. for further analysis of compound levels. Variation between studies, in ApoA-I changes, was observed. Therefore, a relative comparison between individual(s) in the study groups was used.
4′-hydroxyflavone (10 mg/kg of body weight), 4-(4-oxo-4H-chromen-2-yl)phenyl nicotinate (Example 71) (10 mg/kg of body weight) and fenofibrate (100 mg/kg of body weight) were BID administered to hApoA-I transgenic mice daily for fourteen days by oral gavage in 0.5% Methylcellulose (w/v)/1% Tween 80 (w/v). Plasma was assayed for ApoA-I (FIG. 3A), HDL cholesterol and total cholesterol (FIG. 3B) and percent weight gain (FIG. 3C).
4′-hydroxyflavone (3 mg/kg of body weight), 4′-hydroxyflavone (10 mg/kg of body weight), 4′-hydroxyflavone (30 mg/kg of body weight), 2-(4-Hydroxy-phenyl)-pyrano[2,3-b]pyridin-4-one (10 mg/kg of body weight), and fenofibrate (100 mg/kg of body weight) were BID administered to hApoA-I transgenic mice daily for fourteen days by oral gavage in 0.5% methylcellulose (w/v)/1% Tween 80 (w/v). In this experiment plasma was assayed for ApoA-I. […]

Row | Structure (SMILES) | ApoA-I Promoter Induction (human ApoA-I promoter [1]) | solubility at 3 h [2] [µM] | Papp (Caco-2 permeability) [×10⁻⁶ cm/s] | melting point [°C] | ApoA-I Promoter Induction (human ApoA-I promoter [3]) | plasma ApoA-I, net % change over vehicle (hApoA-I transgenic mice; 10 mg/kg BID oral gavage, 14 days, 0.5% methylcellulose/1% Tween 80) [%] | liver weight gain normalized to body weight, compared to vehicle (hApoA-I transgenic mice; 10 mg/kg BID, day 15, male mice)
1 | O=c1cc(-c2ccc(O)c(Cl)c2)oc2ncccc12 [Example 41, 2-(3-chloro-4-hydroxyphenyl)-4H-pyrano[2,3-b]pyridine-4-one] | increased | 84.4 (≈ 23.1 µg/mL) | 1.76 | 259 to 262 |  |  | 
2 | O=c1cc(-c2ccc(O)cc2)oc2cccc(O)c12 [4′,5-dihydroxyflavone] |  |  |  |  | increased |  | 
3 | O=c1cc(-c2ccc(CO)cc2)oc2ccc(O)cc12 [Example 14, 6-Hydroxy-2-(4-hydroxymethylphenyl)chromen-4-one] |  |  |  | 262 to 265 | increased |  | 
4 | O=C1CC(c2ccc(O)cc2)Oc2cc(O)cc(O)c21 (stereo not drawn) [5,7-Dihydroxy-2-(4-hydroxyphenyl)-chroman-4-one] | increased |  |  |  | increased |  | 
5 | O=c1c(O)c(-c2ccc(O)c(O)c2)oc2cc(O)cc(O)c12 [3,5,7-trihydroxy-2-(3,4-dihydroxyphenyl)-4H-chromen-4-one, reference compound] |  |  |  |  | increased |  | 
6 | O=c1cc(-c2ccc(O)cc2)oc2ccc(CO)cc12 [Example 11, 6-Hydroxymethyl-2-(4-hydroxyphenyl)chromen-4-one] |  |  |  | 246 to 247 | increased |  | 
7 | O=C(Oc1ccc(-c2cc(=O)c3c(OC(=O)c4cccnc4)cc(OC(=O)c4cccnc4)cc3o2)cc1)c1cccnc1 [Example 74, 2-(4-Nicotinoyloxy)phenyl)-oxo-4H-chromene-5,7-diyl dinicotinate] | increased |  |  |  | increased |  | 
8 | O=c1cc(-c2ccc(O)c(F)c2)oc2ccccc12 [Example 12, 2-(3-Fluoro-4-hydroxyphenyl)chromen-4-one] |  |  |  | 275 to 276 | increased |  | 
9 | O=c1cc(-c2ccc(O)c(F)c2)oc2ccc(CO)cc12 [Example 33, 2-(3-fluoro-4-hydroxyphenyl)-6-(hydroxymethyl)-4H-chromen-4-one] | increased | 51.4 (≈ 14.7 µg/mL) |  | 256 to 258 |  |  | 
10 | CNc1nc(-c2ccc(O)cc2)cc2cc(OC)cc(OC)c12.Cl [Example 82, 4-(6,8-dimethoxy-1-(methylamino)isoquinolin-3-yl)phenol hydrochloride] | increased | 66.8 |  | 250 to 253 |  |  | 
11 | Oc1ccc(-c2cc3ccccc3cn2)cc1 [Example 54, 4-isoquinolin-3-yl-phenol] | increased |  | 4.11 | 218 to 219 | increased |  | 
12 | Nc1cc(O)ccc1-c1cc(=O)c2ccccc2o1 [Example 3, 2-(2-amino-4-hydroxy-phenyl)-chromen-4-one] |  |  | 7.42 |  | increased |  | 
13 | COc1cc(-c2cc(=O)c3cccnc3o2)ccc1O [Example 43, 2-(4-hydroxy-3-methoxyphenyl)-4H-pyrano[2,3-b]pyridine-4-one] | increased | 47.1 (≈ 12.7 µg/mL) |  | 253 to 255 |  |  | 
14 | O=c1cc(-c2ccc(OCCO)cc2)oc2ncccc12 [Example 45, 2-(4-(2-hydroxyethoxy)phenyl)-4H-pyrano[2,3-b]pyridine-4-one] | increased | 334 (≈ 94.6 µg/mL) |  | 157 to 159 |  |  | 
15 | O=C(Oc1ccc(-c2cc(=O)c3ccccc3o2)cc1)c1cccnc1 [Example 71, 4-(4-oxo-4H-chromen-2-yl)phenyl nicotinate] | increased |  |  |  | increased | 12.82 | minor changes
16 | COc1cc(OC)c2c(=O)[nH]c(-c3ccc(O)cc3)cc2c1 [Example 60, 3-(4-Hydroxyphenyl)-6,8-dimethoxyisoquinolin-1(2H)-one] | increased | 58.2 (≈ 17.3 µg/mL) |  | 245 to 247 |  |  | 
17 | O=c1cc(-c2ccc(O)c(CO)c2)oc2ncccc12 [Example 81, 2-(4-hydroxy-3-(hydroxymethyl)phenyl)-4H-pyrano[2,3-b]pyridin-4-one] | increased | 48.5 (≈ 13.1 µg/mL) |  | 226 to 227 |  |  | 
18 | O=C(Oc1ccc(C2CC(=O)c3c(OC(=O)c4cccnc4)cc(OC(=O)c4cccnc4)cc3O2)cc1)c1cccnc1 (stereo not drawn) [Example 73, 2-(4-(Nicotinoyloxy)phenyl)-4-oxochroman-5,7-diyl dinicotinate] |  |  |  |  | no increase |  | 
